Assay results taken from PMC6501583 (Journal of medicinal chemistry, 2019).
“Also recorded” adds a separate entry of the source. Values belong to the compound of their own block, whether it stands above or below them.

What was measured:
[1] = Predicted hepatic clearance; assay type: in vitro ADME; settings: for rat CLhep: Table 1, predicted hepatic clearance; for Rat CLhep: Table 2, predicted hepatic clearance
rat mGlu7 = rat mGlu7 (Rattus norvegicus, UniProt P35400); assay type: cell-based
[2] = tested on: hippocampus (native tissues); settings: cited from earlier work
[3] = Predicted hepatic clearance; assay type: in vitro ADME
Rat plasma:brain level = assay type: in vivo; settings: rat PBL IV cassette
[4] = Discrete iv and po pharmacokinetics in rat; assay type: in vivo; settings: plasma, 0.2 mg/kg
mGlu1–6,8 = experiment: Selectivity versus the other seven mGlu receptors; assay type: cell-based
5-HT2B receptor = 5-HT2B receptor (Homo sapiens, UniProt P41595); experiment: Eurofins lead profiling panel of 68 GPCRs, ion channels, and transporters; assay type: binding; settings: at 10 μM; only target of 68 above 50%
Sequence of 5-HT2B receptor (P41595 whole entry): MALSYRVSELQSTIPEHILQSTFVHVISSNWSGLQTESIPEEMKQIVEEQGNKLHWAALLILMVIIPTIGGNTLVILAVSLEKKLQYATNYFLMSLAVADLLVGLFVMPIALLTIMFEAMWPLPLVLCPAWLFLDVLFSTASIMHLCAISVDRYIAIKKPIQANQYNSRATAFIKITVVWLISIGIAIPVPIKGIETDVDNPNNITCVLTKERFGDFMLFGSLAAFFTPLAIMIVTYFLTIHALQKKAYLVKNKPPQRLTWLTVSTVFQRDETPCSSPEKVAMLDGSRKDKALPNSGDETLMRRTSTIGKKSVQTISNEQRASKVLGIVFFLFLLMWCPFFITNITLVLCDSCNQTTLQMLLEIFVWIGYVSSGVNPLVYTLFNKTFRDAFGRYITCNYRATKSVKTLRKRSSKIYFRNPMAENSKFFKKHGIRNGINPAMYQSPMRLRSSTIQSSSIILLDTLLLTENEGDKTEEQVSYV

30 mg/kg = assay type: in vivo, rat
mice [5] = experiment: Elevated zero maze; assay type: in vivo, mouse
mice [6] = experiment: Light/dark box assay; assay type: in vivo, mouse; settings: vs vehicle
mice [7] = experiment: Mouse marble-burying assay; assay type: in vivo; settings: vs vehicle

Sequence of rat mGlu7 (P35400 35-915): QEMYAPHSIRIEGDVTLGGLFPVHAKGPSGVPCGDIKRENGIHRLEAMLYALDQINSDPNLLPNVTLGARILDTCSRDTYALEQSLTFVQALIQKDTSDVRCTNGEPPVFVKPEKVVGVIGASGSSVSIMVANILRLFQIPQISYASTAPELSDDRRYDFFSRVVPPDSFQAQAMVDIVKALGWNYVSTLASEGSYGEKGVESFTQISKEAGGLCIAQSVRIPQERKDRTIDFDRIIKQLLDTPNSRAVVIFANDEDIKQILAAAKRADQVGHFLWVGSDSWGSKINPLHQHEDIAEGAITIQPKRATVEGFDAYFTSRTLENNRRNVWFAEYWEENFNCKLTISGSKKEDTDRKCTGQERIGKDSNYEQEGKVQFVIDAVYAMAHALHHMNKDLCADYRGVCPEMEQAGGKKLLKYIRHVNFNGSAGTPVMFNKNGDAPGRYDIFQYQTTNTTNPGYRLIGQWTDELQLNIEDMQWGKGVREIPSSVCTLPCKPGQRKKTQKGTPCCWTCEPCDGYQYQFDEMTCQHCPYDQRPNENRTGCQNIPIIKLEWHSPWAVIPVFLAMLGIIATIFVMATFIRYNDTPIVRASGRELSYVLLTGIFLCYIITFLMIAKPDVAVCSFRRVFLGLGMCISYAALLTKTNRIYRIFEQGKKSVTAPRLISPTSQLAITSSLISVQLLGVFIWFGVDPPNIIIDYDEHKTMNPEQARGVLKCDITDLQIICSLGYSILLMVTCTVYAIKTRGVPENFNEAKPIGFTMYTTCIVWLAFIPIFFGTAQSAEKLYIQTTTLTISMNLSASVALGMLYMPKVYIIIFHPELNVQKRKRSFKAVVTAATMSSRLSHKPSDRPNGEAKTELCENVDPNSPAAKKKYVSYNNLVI

rat CLhep [1]: 68.1 mL/min/kg
SMILES: COc1ccc(CCCNc2cc(OC(F)(F)F)ccc2-n2cncn2)cc1OC [6b]

mGlu7 NAM activity (in words) (rat mGlu7): restored mGlu7 NAM activity
Rat CLhep [1]: 38.4 mL/min/kg
SMILES: COc1cc(C(=O)Nc2cc(OC(F)(F)F)ccc2-n2cncn2)ccc1OCC(C)C [7c]

SMILES: COc1ccc(C(=O)Nc2cc(OC(F)(F)F)ccc2-n2cncn2)cc1OC [compound 5]
blocking high-frequency-stimulated LTP in the hippocampus [2]: robust efficacy

rat CLhep [1]: 66.4 mL/min/kg
SMILES: COc1cc(F)c(CCCNc2cc(OC(F)(F)F)ccc2-n2cncn2)cc1OC [6c]

predicted hepatic clearance, rat CLhep [1]: 15.9 mL min^–1 kg^–1
Rat CLhep [1]: 15.9 mL/min/kg
predicted hepatic clearance in mouse, CLhep [3]: 44.0 mL min^–1 kg^–1
[brain]tot (Rat plasma:brain level): 375 nM
clearance at 24 h [4]: 31.5 mL/min/kg
compound activity at 5-HT2B receptor (5-HT2B receptor): greater than 50%
predicted unbound levels (CSF concentrations) above the in vitro IC50 (30 mg/kg; at modest doses): ~ 4 fold
[brain]tot (30 mg/kg; rat, 30 mg/kg ip): 745 nM
[plasma]tot (30 mg/kg; rat, 30 mg/kg ip): 598 nM
levels in CSF (30 mg/kg; rat, 30 mg/kg ip): 1300 nM
SMILES: COc1cc(C(=O)Nc2cc(OC(F)(F)F)ccc2-n2cncn2)ccc1OCC1CC1 [7d, N-(2-(1H-1,2,4-Triazol-1-yl)-5-(trifluoromethoxy)phenyl)-4-(cyclopropylmethoxy)-3-methoxybenzamide]
activity versus mGlu1–6,8 (mGlu1–6,8): > 10 µM
time spent in the open arms (mice [5]; 3 mg/kg ip, vs VEH p < 0.05, 3 mg/kg): increased total time spent in the open arms; also recorded: increases time spent in the open arms
overall locomotion / distance traveled (mice [5]; 10 mg/kg ip, 10 mg/kg): decrease in overall locomotion; also recorded: decreased distance traveled
total time spent in the light side of the chamber (mice [6]; 3 mg/kg ip): increased total time spent in the light side of the chamber
number of marbles buried (mice [7]; 3 mg/kg, 3 mg/kg): decreased the number of marbles buried; also recorded: reduced the number of marbles buried

mGlu7 NAM activity (in words) (rat mGlu7): inactive
SMILES: COc1cc(C(=O)Nc2cc(OC(F)(F)F)ccc2-n2cncn2)ccc1OCC(C)(C)C [7b]

% L-AP4 min (rat mGlu7): 17 ± 3%
SMILES: COc1ccc(CNc2cc(OC(F)(F)F)ccc2-n2cncn2)cc1OC [6a]

rat CLhep [1]: 66.4 mL/min/kg
SMILES: COc1cc(F)c(OCCNc2cc(OC(F)(F)F)ccc2-n2cncn2)cc1OC [6d]

SMILES: CNCCC(Oc1ccc(C(F)(F)F)cc1)c1ccccc1 (centres unmarked) [fluoxetine, reference compound]
total time spent in the light side of the chamber (mice [6]; 15 mg/kg ip): increased total time spent in the light side of the chamber
number of marbles buried (mice [7]; fluoxetine 15 mg/kg): decreased the number of marbles buried

mGlu7 NAM activity (in words) (rat mGlu7): inactive
SMILES: COc1cc(C(=O)Nc2cc(OC(F)(F)F)ccc2-n2cncn2)ccc1OCC(F)(F)F [7a]
